Counter-ions that a name gives are not always drawn.
Experiments:
δ opioid receptors = δ opioid receptors (Rattus norvegicus, UniProt P33533); experiment: Opiate Binding Assay, δ (3[H]-DSLET displacement)
μ opioid receptors = μ opioid receptors (Rattus norvegicus, UniProt P33535); experiment: Opiate Binding Assay, μ (3[H]-DAMPGO displacement)
[1] = tested on: Charles River albino mice; experiment: Hot Plate Assay (mouse); type: in vivo
Excerpt: (§1) The "Tail Flick Assay" and the "Hot Plate Assay" (also known as the "Hind Paw Lick Assay") use thermal pain of transient duration, and are tests in which the pain threshold of the mice or rats being analyzed has not been altered. They are useful for evaluating the ability of a compound or drug to increase the animal's pain threshold (i.e. prolong response latencies), rather than to restore normal thresholds.
(§2) The heat-induced response to the Tail Flick Assay is a reflex reaction mediated at the level of the spinal cord. The heat-induced response to the Hot Plate Assay, however, is a more complex behavior requiring integration at higher centers in the brain.
The Tail Flick Assay and the Hot Plate Assay were performed generally in the manner described by G. Woolfe et al., "The Evaluation of the Analgesic Action of Pethidine Hydrochloride (Demerol)," J. Pharmacol. Exp. Ther., 80, 300, (1944), F. D'Amour et al., "A Method for Determining Loss of Pain Sensation," J. PharmacoI. […]
Tail flick response latencies (defined as the time that elapsed between the onset of a high intensity beam of light and the reflex removal of the mouse or rat's tail) and hot plate response latencies (defined as the time that elapsed between the placement of a mouse or rat on a 55 degrees Celsius surface and a lick of the hind paw) were separately, but consecutively, measured before (baseline) and again at fixed intervals after subcutaneous or intracerebroventricular administration of one of the pentapeptide compounds of the invention, the Mosberg Pentapeptide, or after the administration of saline (controls). […] The significance of any increase in tail flick response latency or hot plate response latency is determined using analyses of variance. […]
(§3) "Activity" or "Inactivity" was determined at a particular concentration of the peptide by a significant increase in tail flick or hot plate latencies above normal latencies.
(§4) The data resulting from the Tail Flick Assay and the Hot Plate Assay are presented in Tables II and III below, respectively. The numbers in parentheses are calculated ED50 values.

[2] = tested on: Charles River Sprague-Dawley rats; experiment: Tail Flick Assay (rat); type: in vivo; conditions: s.c., at 30 mpk
Excerpt: as §1
The heat-induced response to the Tail Flick Assay is a reflex reaction mediated at the level of the spinal cord. The heat-induced response to the Hot Plate Assay, however, is a more complex behavior requiring integration at higher centers in the brain. […]
Tail flick response latencies (defined as the time that elapsed between the onset of a high intensity beam of light and the reflex removal of the mouse or rat's tail) and hot plate response latencies (defined as the time that elapsed between the placement of a mouse or rat on a 55 degrees Celsius surface and a lick of the hind paw) were separately, but consecutively, measured before (baseline) and again at fixed intervals after subcutaneous or intracerebroventricular administration of one of the pentapeptide compounds of the invention, the Mosberg Pentapeptide, or after the administration of saline (controls). […]

CD Charles River mice = experiment: Writhing Assay (PBQ-induced writhing); type: in vivo; conditions: mouse; for Writhing Assay, number of mice out of ten in which peptide was active, Intragastric: i.g., 15 min before PBQ; for Writhing Assay, number of mice out of ten in which peptide was active, Intragastric / Writhing Assay, number of mice out of ten in which peptide was active, Subcutaneous: 10 mpk screening dose; for Writhing Assay ED50 value, Subcutaneous / Writhing Assay, number of mice out of ten in which peptide was active, Subcutaneous: s.c.; for Writhing Assay ED50 value, Subcutaneous: 25 min before PBQ i.p.
Excerpt: The "Writhing Assay" is one of the most widely-used experimental procedures for measuring the analgesic activity of different narcotic and nonnarcotic analgesic agents, and involves the continuous, chemically-induced pain of visceral origin to an animal, such as a mouse or rat. [Gyires et al., Arch. int. Pharmacodyn, 267, 131-140 (1984); C. Vander Wende et al., Fed. Proc., 15, 494 (1956); Koster et al., Fed. Proc., 18, 412 (1959); and Witken et al., J. Pharmacol. Exp. Ther., 133, 400-408 (1961).] Chemicals Which may be used to induce this pain include phenylbenzoquinone (PBQ) and acetic acid. As a result of the chemical irritation to the animal, a characteristic stretching and writhing of the animal (dorsiflexion of the animal's back, extension of its hindlimbs and the strong contraction of its abdominal musculature) will generally occur. […] Drugs which reduce the number of writhes of the animal appear to restore the normal nociceptive threshold of the animal.
This assay was conducted generally in the manner described by R. I. Taber, "Predictive Value of Analgesic Assays in Mice and Rats," Advances in Biochemical Psychopharmacology, 8, 191 (1974).
Two hundred CD Charles River mice, weighing 20 to 30 grams were used in this assay.
Twenty-five minutes after subcutaneous administration, and fifteen minutes after intragastric administration, to the mice of 10 mg per kilogram (mpk) of body weight of either a Test Pentapeptide or the Mosberg Pentapeptide, 0.1 ml per 10 g of body weight of a 0.025% w/v solution of PBQ was injected intraperitoneally into each mouse. Some mice were given saline in place of a Test Pentapeptide, or the Mosberg Pentapeptide, and were used as a control group.
Five minutes later, each mouse was individually placed into a glass beaker for observation, and the number of writhes occurring during the following ten-minute period was counted.
A pentapeptide compound was considered to be "active" (to have produced analgesia in a mouse) if, after the administration of 10 mg per kilogram (mpk) of body weight of the compound to the mouse, the number of writhes elicited by a mouse injected with PBQ was equal to, or less than, one-half the median number of writhes recorded for the saline-treated control group of mice that day, as described by R. I. Taber, supra.
The standard initial screening dose of a test compound employed in this assay was 10 mpk […] for both routes of administration. […] A maximum likelihood function was used to determine the ED50 value. (The slopes of the dose-response curves for all test compounds analyzed were compared as described by Tallarida and Murray, Manual of Pharmacologic Calculations, Page 11 (Springer Verlag, New York, 1981)).

[3] = tested on: Charles River albino mice; experiment: Tail Flick Assay (mouse); type: in vivo; conditions: for Tail Flick Assay activity, Subcutaneous: s.c.
Excerpt: as §1, §2
The Tail Flick Assay and the Hot Plate Assay were performed generally in the manner described by G. Woolfe et al., "The Evaluation of the Analgesic Action of Pethidine Hydrochloride (Demerol)," J. Pharmacol. Exp. Ther., 80, 300, (1944), F. D'Amour et al., "A Method for Determining Loss of Pain Sensation," J. PharmacoI. Exp. Ther., 72, 74, 300-307 (1941), and E. Drower et al., "The Antinociceptive Effects of Prostaglandin Antagonists in the Rat," European Journal of Pharmacology, 133, 249-256 (1987).
Male Charles River albino mice and male Charles River Sprague-Dawley rats weighing 20 to 30 g, and 200 to 250 g, respectively, were employed in these assays.
Tail flick response latencies (defined as the time that elapsed between the onset of a high intensity beam of light and the reflex removal of the mouse or rat's tail) and hot plate response latencies (defined as the time that elapsed between the placement of a mouse or rat on a 55 degrees Celsius surface and a lick of the hind paw) were separately, but consecutively, measured before (baseline) and again at fixed intervals after subcutaneous or intracerebroventricular administration of one of the pentapeptide compounds of the invention, the Mosberg Pentapeptide, or after the administration of saline (controls). The cut-off latencies established to prevent tissue damage in the animals are 12 seconds or 14 seconds in the mouse and rat, respectively, in the Tail Flick Assay, and 40 seconds for both species in the Hot Plate Assay. The significance of any increase in tail flick response latency or hot plate response latency is determined using analyses of variance.
One way analyses of variance were used to determine the significance of the effect of the pentapeptides on response latencies. […]
as §3, §4

[4] = i.c.v., dose giving half the maximum possible increase in latency

Sequence of δ opioid receptors (P33533 whole entry): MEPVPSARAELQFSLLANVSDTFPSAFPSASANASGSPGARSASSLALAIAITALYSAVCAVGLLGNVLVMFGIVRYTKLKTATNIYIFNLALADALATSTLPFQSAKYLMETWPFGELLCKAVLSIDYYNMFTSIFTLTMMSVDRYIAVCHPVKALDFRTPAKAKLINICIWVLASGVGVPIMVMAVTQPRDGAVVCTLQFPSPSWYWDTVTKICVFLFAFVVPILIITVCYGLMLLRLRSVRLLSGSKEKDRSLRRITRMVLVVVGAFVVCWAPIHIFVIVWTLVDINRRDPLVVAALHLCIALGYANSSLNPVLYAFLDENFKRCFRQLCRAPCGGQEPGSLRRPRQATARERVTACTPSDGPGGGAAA
Sequence of μ opioid receptors (P33535 whole entry): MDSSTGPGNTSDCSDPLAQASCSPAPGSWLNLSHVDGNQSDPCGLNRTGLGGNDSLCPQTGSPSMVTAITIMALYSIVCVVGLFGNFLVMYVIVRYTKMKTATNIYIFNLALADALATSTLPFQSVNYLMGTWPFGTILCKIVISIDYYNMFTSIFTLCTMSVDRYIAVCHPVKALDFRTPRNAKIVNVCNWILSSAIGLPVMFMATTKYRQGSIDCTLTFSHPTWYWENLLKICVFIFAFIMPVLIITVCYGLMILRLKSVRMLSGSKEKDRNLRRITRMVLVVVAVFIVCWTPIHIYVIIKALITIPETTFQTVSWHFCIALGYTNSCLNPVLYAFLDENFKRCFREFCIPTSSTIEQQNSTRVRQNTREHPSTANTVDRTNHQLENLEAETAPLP

Cc1cc(O)c(C)c(C)c1CC(N)C(=O)N[C@H]1C(=O)NCC(=O)N[C@@H](Cc2ccccc2)C(=O)N[C@@H](C(=O)O)C(C)(C)SSC1(C)C (single isomer, unassigned) [Example 20 (Diastereomer A), 2,3,6-trimethyl-L-tyrosyl-3-mercapto-D-valylglycyl-L-phenylalanyl-3-mercapto-D-valine, cyclic (2→5) disulfide]
IC50 (δ opioid receptors): 24 nM | IC50 (μ opioid receptors): 24000 nM

Cc1ccc(CC(N)C(=O)N[C@H]2C(=O)NCC(=O)N[C@@H](Cc3ccccc3)C(=O)N[C@@H](C(=O)O)C(C)(C)SSC2(C)C)c(C)c1O (single isomer, unassigned) [Example 21 (Diastereomer B), 3-hydroxy-2,4-dimethyl-L-phenylalanyl-3-mercapto-D-valyglycyl-L-phenylalanyl-3-mercapto-D-valine, cyclic (2→5)-disulfide]
IC50 (δ opioid receptors): 151 nM

Cc1cc(O)cc(C)c1C[C@H](N)C(=O)N[C@H]1C(=O)NCC(=O)N[C@@H](Cc2ccccc2)C(=O)N[C@@H](C(=O)O)C(C)(C)SSC1(C)C [Example 4, 2,6-dimethyl-L-tyrosyl-3-mercapto-D-valylglycyl-L-phenylalanyl-3-mercapto-D-valine, cyclic (2→5)-disulfide]
Hot Plate Assay calculated ED50 value, Intracerebroventricular [1, 4]: 0.20 µg | Tail Flick Assay activity, Subcutaneous [2]: Active | Writhing Assay, number of mice out of ten in which peptide was active, Intragastric (CD Charles River mice): 3/10 | Writhing Assay ED50 value, Subcutaneous (CD Charles River mice): 2.6 mpk | Tail Flick Assay calculated ED50 value, Intracerebroventricular [3, 4]: 0.28 µg | Tail Flick Assay activity, Subcutaneous ([3]; at 33 mpk): Active

COC(=O)[C@@H]1NC(=O)[C@H](Cc2ccccc2)NC(=O)CNC(=O)[C@H](NC(=O)[C@@H](N)Cc2c(C)cc(O)cc2C)C(C)(C)SSC1(C)C [Example 16, -dimethyl-L-tyrosyl-3-mercapto-D-valylglycyl-L-phenylalanyl-3-mercapto-D-valine, cyclic (2→5)-disulfide, methyl ester]
Hot Plate Assay activity, Intracerebroventricular ([1]; i.c.v., at 10 μg): Active | Hot Plate Assay activity, Subcutaneous ([1]; s.c., at 30 mpk): Active | Writhing Assay, number of mice out of ten in which peptide was active, Intragastric (CD Charles River mice): 3/10 | Writhing Assay ED50 value, Subcutaneous (CD Charles River mice): 2.1 mpk | Tail Flick Assay activity, Intracerebroventricular ([3]; i.c.v., at 10 μg): Active | Tail Flick Assay activity, Subcutaneous ([3]; at 30 mpk): Active

Cc1cc(O)cc(C)c1C[C@H](N)C(=O)N[C@H]1C(=O)NCC(=O)N[C@@H](Cc2ccc(F)cc2)C(=O)N[C@@H](C(N)=O)C(C)(C)SSC1(C)C [Example 23, 2,6-dimethyl-L-tyrosyl-3-mercapto-D-valylglycyl-4-fluoro-L-phenylalanyl-3-mercapto-D-valinamide, cyclic (2→5)-disulfide]
rank order of potency in the Writhing Assay (CD Charles River mice; from Table I): most potent compound of the invention tested | Writhing Assay, number of mice out of ten in which peptide was active, Intragastric (CD Charles River mice): 4/10 | Writhing Assay ED50 value, Subcutaneous (CD Charles River mice): 1.9 mpk

Cc1cc(O)cc(C)c1C[C@H](N)C(=O)N[C@H]1C(=O)NCC(=O)N[C@@H](CC2CCCCC2)C(=O)N[C@@H](C(N)=O)C(C)(C)SSC1(C)C [Example 24, 2,6-dimethyl-L-tyrosyl-3-mercapto-D-valylglycyl-3-cyclohexyl-L-alanyl-3-mercapto-D-valinamide, cyclic (2→5)-disulfide]
Mean IC50 μ/δ Ratio (δ opioid receptors; ratio of mean IC50 values for μ and δ opioid receptors, above 1.0 = δ specific): 1.6 | Writhing Assay, number of mice out of ten in which peptide was active, Intragastric (CD Charles River mice): 2/10 | Writhing Assay, number of mice out of ten in which peptide was active, Subcutaneous (CD Charles River mice): 2/10

Cc1cc(O)cc(C)c1C[C@H](N)C(=O)N[C@H]1C(=O)NCC(=O)N[C@@H](Cc2ccc(Cl)cc2)C(=O)N[C@@H](C(=O)OCc2ccccc2)C(C)(C)SSC1(C)C [Example 41, 2,6-dimethyl-L-tyrosyl-3-mercapto-D-valylglycyl-4-chloro-L-phenylalanyl-3-mercapto-D-valine, cyclic (2→5)-disulfide, phenylmethyl ester, monohydrochloride]
Writhing Assay, number of mice out of ten in which peptide was active, Intragastric (CD Charles River mice): 4/10 | Writhing Assay, number of mice out of ten in which peptide was active, Subcutaneous (CD Charles River mice): 3/10
